Experimental data: US20190275087A1, “EXPANSION AND DIFFERENTIATION OF STEM CELLS” (Allergan Pharmaceuticals International Limited, priority 2018, published 2019)
Each block holds one compound with its values, some of them ahead of it.

Legend:
[1] = system: MSCs; test: MSC proliferation with integrin, FGFR, FAK and PKB/AKT inhibitors; type: cell-based, Human; details: for reduction of tropoelastin-mediated proliferation: downstream signaling inhibitor, 7 days
Experimental: (§1) Sub-confluent flasks of MSCs were treated with 0.05% (v/v) trypsin-EDTA (Sigma-Aldrich®) at 37° C. for 5 min to lift off adherent cells from the culture vessel. Trypsin was neutralized with two volumes of serum-containing growth media. Cells were centrifuged at 270 g for 5 min and resuspended in the required media. Cells were seeded at a density of 5000 cells/cm^2 on bare or protein-coated tissue culture plastic wells, in normal or supplemented media. Media was changed every 2 days. After specific time points, cells were fixed with 3% (v/v) formaldehyde at room temperature for 20 min, washed with PBS, then stained with 0.1% (w/v) crystal violet in 0.2 M MES buffer for 1 hour. Excess stain was washed off four times with reverse osmosis water. The retained stain was solubilized with 10% (v/v) acetic acid and sample absorbance values indicative of cell abundance were read at 570 nm. Sample absorbance values were subtracted by baseline values (corresponding to cell numbers in serum-free media, or cell numbers on day 1 post-seeding) and expressed as a fraction of the highest absorbance among all samples on day 7 post-seeding.
To block specific integrin activity, up to 20 μg/mL of anti-αv or anti-αvβ3 integrin antibodies (Abcam®), or up to 1:250 dilution of anti-αvβ5 integrin antibody (Abcam®) was added to the media during MSC spreading or proliferation assays. […] An anti-β8 integrin (5 μg/mL) (Abcam®) or a non-specific mouse IgG (5 μg/mL) (Sigma-Aldrich®) were also included as negative antibody controls. […] The integrin and FGFR inhibitors were replenished during every media change.

[2] = molecular target: integrins on MSCs; test: cell-based or functional assay
[3] = system: MSCs; test: Flow cytometry of MSC surface marker expression; type: cell-based, Human; details: bare TCP, media with only this growth factor, 7 days post-seeding
Experimental: MSCs cultured for 5 or 7 days in various media formulations and on bare or protein-coated tissue culture wells were trypsinised and pelleted. The cell pellets were washed with 0.22 μm filtered FACS buffer (5% v/v FBS in PBS) and re-centrifuged at 270 g for 5 min. The cells were resuspended in FACS buffer to a concentration of 100,000 cells in 100 μL total volume, and probed for MSC marker expression using the Human Mesenchymal Stem Cell Verification Flow Kit (R&D Systems®). Isotype and unstained control samples were prepared using MSCs cultured in standard growth media on tissue culture plastic. Cells were analyzed using a BD™ Biosciences LSR II Flow Cytometer System. Singlet cells were determined by their forward scatter-to-side scatter and scatter height-to-width ratios, while viable cells were identified by exclusion of 1:20 propidium iodide. Only singlet, viable cells were analyzed for marker expression.

[4] = system: Human bone marrow-derived MSCs; test: MSC proliferation (crystal violet cell abundance); type: cell-based
Experimental: Human bone marrow-derived MSCs obtained from American Type Culture Collection (ATCC) were cultured in normal media, which consists of Alpha-Minimum Essential Medium (α-MEM) (Lonza) with 10% (v/v) FBS (Life Technologies) and 2.4 mM L-glutamine (Lonza), at 37° C. in a humidified normoxic incubator up to a maximum of 10 population doublings. Where indicated, the normal media was supplemented with 15 ng/mL IGF-1 (Life Technologies) and/or […] bFGF (Life Technologies), equivalent to the growth factor concentrations in the ATCC-recommended media. Cells were passaged once they reach 70-80% confluence.
Where indicated, tissue culture plastic wells were coated with 20 μg/mL recombinant human tropoelastin (Elastagen) or 2 μg/mL fibronectin (Sigma-Aldrich®) in PBS (10 mM phosphate, 150 mM NaCl, pH 7.4) at 4° C. overnight. The protein solution was removed, and wells were washed three times with PBS to remove unbound protein prior to cell seeding.
[…] To prevent protein adhesion on the tissue culture substrate, wells were pre-incubated with normal media for 5 hours to enable surface blocking by serum proteins prior to cell seeding in supplemented media.
as §1

[5] = system: MSCs; test: MSC attachment to substrate-bound tropoelastin (EDTA inhibition, cation add-back); type: cell-based, Human; details: 5 mM
Experimental: MSCs were seeded at a density of 1.5×10^5 cells/cm^2 on tropoelastin-coated wells in serum-free α-MEM containing 0-9 mM ethylenediaminetetraacetic acid (EDTA) (Sigma-Aldrich®). The cells were incubated for 1 hour at 37° C., then washed with PBS to remove unbound cells. Bound cells were fixed, stained and measured for absorbance at 570 nm as described for the proliferation assays. The percentage of cell attachment was determined relative to a set of standards with known cell numbers.
MSCs were washed with cation-free PBS, centrifuged at 270 g for 5 min, and resuspended in cation-free PBS. The cells were seeded at a density of 1.5×10^5 cells/cm^2 on tropoelastin-coated wells in the presence of 0-0.5 mM cation (Mg^2+, Ca^2+ or Mn^2+) and incubated for 45 min at 37° C. Bound cells were fixed and stained, and cell attachment was quantified as previously described.

[6] = system: MSCs; test: MSC spreading with integrin-blocking antibodies; type: cell-based, Human; details: no antibody
Experimental: Cells were fixed and visualized by phase contrast microscopy with a Zeiss Axio Vert.A1 microscope. Images were taken on an AxioCam ICml monochrome camera. […] Cell spreading was quantified by counting the percentage of spread cells in each field of view. Three fields of view were obtained for each sample replicate.
To block specific integrin activity, up to 20 μg/mL of anti-αv or anti-αvβ3 integrin antibodies (Abcam®), or up to 1:250 dilution of anti-αvβ5 integrin antibody (Abcam®) was added to the media during MSC spreading or proliferation assays. Optimal inhibitory concentrations were selected for the anti-αv (5 μg/mL), anti-αvβ3 (5 μg/mL), and anti-αvβ5 (1:500 dilution) integrin antibodies. An anti-β8 integrin (5 μg/mL) (Abcam®) or a non-specific mouse IgG (5 μg/mL) (Sigma-Aldrich®) were also included as negative antibody controls. To block FGFR activity, up to 20 μM of the SU-5402 FGFR inhibitor (Sigma-Aldrich®) was added to the media during MSC proliferation. The integrin and FGFR inhibitors were replenished during every media change.

recombinant human tropoelastin (Elastagen), sequence (P15502 other isoform, or with tags, fused parts or gaps limits assumed): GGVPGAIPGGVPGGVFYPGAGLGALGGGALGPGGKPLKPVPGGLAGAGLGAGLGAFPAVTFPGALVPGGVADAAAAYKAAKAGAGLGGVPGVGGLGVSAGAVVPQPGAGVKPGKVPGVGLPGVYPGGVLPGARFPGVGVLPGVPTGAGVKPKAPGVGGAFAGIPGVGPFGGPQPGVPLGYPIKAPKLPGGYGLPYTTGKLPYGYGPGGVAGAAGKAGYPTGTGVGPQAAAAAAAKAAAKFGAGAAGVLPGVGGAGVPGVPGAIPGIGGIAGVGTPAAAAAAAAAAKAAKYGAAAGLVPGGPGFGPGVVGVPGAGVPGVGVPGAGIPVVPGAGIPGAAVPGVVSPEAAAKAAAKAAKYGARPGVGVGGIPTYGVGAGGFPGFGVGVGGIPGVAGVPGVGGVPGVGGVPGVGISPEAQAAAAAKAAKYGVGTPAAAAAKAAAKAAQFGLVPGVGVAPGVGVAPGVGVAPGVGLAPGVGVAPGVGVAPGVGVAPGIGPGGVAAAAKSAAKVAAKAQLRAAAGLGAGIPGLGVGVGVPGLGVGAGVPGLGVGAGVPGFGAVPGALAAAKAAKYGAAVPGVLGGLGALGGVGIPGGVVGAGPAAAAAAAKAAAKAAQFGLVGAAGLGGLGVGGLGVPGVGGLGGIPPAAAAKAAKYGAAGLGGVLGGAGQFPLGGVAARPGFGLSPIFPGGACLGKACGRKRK

Compound: Cc1c[nH]c(/C=C2\C(=O)Nc3ccccc32)c1CCC(=O)O [SU-5402]
- reduction in overall cell numbers compared to no inhibitor control ([1]; bFGF-supplemented media, over 7 days): ≤ 78.9±0.7%

- MSC adhesion to tropoelastin after addition of up to 0.5 mM Ca2+ [2]: 13.7%
- MSC adhesion to tropoelastin after addition of up to 0.5 mM Mg2+ [2]: 51.8%
- MSC adhesion to tropoelastin after addition of up to 0.5 mM Mn2+ [2]: 76.1%
- MSC adhesion to tropoelastin in a cation-free environment [2]: 20%
- reduction of MSC attachment to substrate-bound tropoelastin in the presence of 5 mM EDTA [2]: 48.9%
Compound: recombinant human tropoelastin (Elastagen) (from UniProt P15502 27-724) (ligand)

Compound: CCCCCCCCCCCCCCCCCCOP(=O)([O-])OC1CC[N+](C)(C)CC1 [perifosine]
- reduction of tropoelastin-mediated proliferation [1]: 21.3±0.5%

Compound: Nc1cc(N)c(N)cc1N [FAK inhibitor 14]
- reduction of tropoelastin-mediated proliferation [1]: 50.7±2.0%

Compound: IGF-1: insulin-like growth factor-1 (Life Technologies), media supplement [reference compound]
- cells expressing CD73 [3]: 89.1±0.1%
- cells positive for CD105 [3]: 83.9±0.7%
- MSC numbers compared to normal media ([4]; media supplementation with IGF-1 alone): did not increase MSC numbers

Compound: bFGF: basic fibroblast growth factor (Life Technologies), media supplement [reference compound]
- cells positive for CD105 [3]: 92.9±5.9%

Compound: O=C(O)CN(CCN(CC(=O)O)CC(=O)O)CC(=O)O [EDTA, ethylenediaminetetraacetic acid, reference compound]
- reduction of MSC binding to tropoelastin [5]: 48.9±0.5%

Compound: fibronectin [reference compound]
- cell spreading on fibronectin [6]: 92.5±2.6%
- decrease in MSC proliferation on coated surface following serum reduction ([4]; 20% reduction in serum, after 7 days): 15±0.1%
- inhibition of MSC proliferation on coated TCP compared to normal media ([4]; 40% decrease in serum, after 7 days): 25±1%
- coating concentration that promoted MSC expansion ([4]; coated on the substratum): ≥ 2 µg/mL
- serum reduction at which MSC numbers significantly decreased ([4]; coated surface, until 3 days post-seeding): completely absent
- MSC propagation of fibronectin coating relative to tropoelastin coating ([4]; full serum media): equally promoted
- stimulation of MSC proliferation above normal media ([4]; in solution in media, up to 7 days): did not trigger any proliferative response
